Counter-ions that a name gives are not always drawn.
Test: dynamic vapor absorption and desorption analysis (DVS)
Assay type: physicochemical
Conditions: for weight gain under 80% relative humidity / hygroscopicity of the sample: DVS, 25° C.; for hygroscopicity of the sample: graded in words; for crystalline form of the sample after the DVS test: XRPD overlay before and after DVS test
Method: The instrument used in dynamic vapor absorption and desorption analysis (DVS) was DVS Intrinsic (SMS, UK). The sample was placed in the sample basket of the instrument for automatic weighing, then heated to 40° C., and dried under a nitrogen stream to a dm/dt of less than 0.002%. The measurement was started after the temperature was dropped to 25° C., The instrument parameters were as follows.
Time per step: 60 min Sample temperature: 25° C. Cycle: entire cycle
Data storage rate: 5 s Total flow rate: 200 sccm Total flow rate after the test: 200 sccm

| Compound | weight gain under 80% relative humidity | hygroscopicity of the sample | crystalline form of the sample after the DVS test |
| --- | --- | --- | --- |
| C=CC(=O)Nc1cc(Nc2nccc(-c3cn(CC(F)(F)F)c4ccccc34)n2)c(OC)cc1N(C)CCN(C)C [crystalline form III of hydrochloride] | about 1.86% | slightly hygroscopic | does not change |
| C=CC(=O)Nc1cc(Nc2nccc(-c3cn(CC(F)(F)F)c4ccccc34)n2)c(OC)cc1N(C)CCN(C)C [crystalline form I of succinate] | about 0.57% | slightly hygroscopic | does not change |
| C=CC(=O)Nc1cc(Nc2nccc(-c3cn(CC(F)(F)F)c4ccccc34)n2)c(OC)cc1N(C)CCN(C)C [crystalline form I of phosphate] | about 0.61% | slightly hygroscopic | does not change |
| C=CC(=O)Nc1cc(Nc2nccc(-c3cn(CC(F)(F)F)c4ccccc34)n2)c(OC)cc1N(C)CCN(C)C [crystalline form I of benzenesulfonate] | about 0.41% | slightly hygroscopic | does not change |
| C=CC(=O)Nc1cc(Nc2nccc(-c3cn(CC(F)(F)F)c4ccccc34)n2)c(OC)cc1N(C)CCN(C)C [crystalline form I of sulfate] | about 3.31% | hygroscopic | does not change |
| C=CC(=O)Nc1cc(Nc2nccc(-c3cn(CC(F)(F)F)c4ccccc34)n2)c(OC)cc1N(C)CCN(C)C [crystalline form I of p-toluenesulfonate] | about 0.55% | slightly hygroscopic | does not change |

Reference: patent publication US20220213066A1, “SALTS OF A CLASS OF PYRIMIDINE COMPOUNDS, POLYMORPHS, AND PHARMACEUTICAL COMPOSITIONS THEREOF, PREAPRATION METHODS THEREFOR AND USES THEREOF” (INVENTISBIO CO., LTD., priority 2019, published 2022)
